# According to patent US20240299266A1, “FRAGRANCE COMPOSITIONS WITH MOISTURIZING BENEFITS” (Firmenich SA, priority 2021, published 2024):
# Entries after “also recorded” stand apart in the source; their conditions may differ.
# Assay: TEWL (trans-epidermal water loss) measurement on in-vitro skin model
# Settings: 50 μL applied on hydrated artificial skin membrane on a Franz Cell, Vapometer, TEWL during 60 min, normalized to pre-treatment reference (100%)
# Excerpt: The present inventors have investigated the moisturizing potential of perfume ingredients. To perform this assessment they used a model called a skin replicating surface, and measured the transepidermal water loss (TEWL) before and after the deposit of a sample of the perfume ingredient. This is measure of the moisturizing activity of the perfume ingredient.
# The moisturizing activity of a fragrance component may be calculated as follows. • a step of controlled deposition of a fragrance component upon an skin replicating surface, • a step of measurement of a quantity of evaporated water from the skin replicating surface or of remaining water on the skin replicating surface after the deposition of the fragrance component at different measurement times, • a step of reduction of the water evaporation rate calculation depending on the measured evaporated or remaining water quantities measured, • a step of moisturizing activity calculation as a function of the water evaporation rate measured.
# The skin replicating surface comprising (i) a hydrogel membrane layer comprising a water permeable substrate supporting a biopolymer, and (ii) a stratum corneum mimic layer.
# The hydrogel membrane composition should include a knitted cotton piece topped by a hydrogel containing biopolymer (gelatin) able to form a hydrogel with water and glycerol.
# The stratum corneum mimic layer can be a Vitro-Corneum substrate (product of IMS inc.)
# Before measurements, the hydrogel membrane and the Vitro-Corneum substrate should be separately hydrated in a hydration chamber and then, assembled. The Vitro-Corneum substrate is made of proteins and lipids and mimics the thickness, the visco-elasticity, the chemical reactivity and the surface properties of human stratum corneum. The hydrogel allows to keep the Vitro-Corneum substrate hydrated.
# Hydrogel is prepared by mixing gelatin, glycerol and water at a water bath in the following composition. Preferably around 50% of the hydrogel is glycerol and around 5% is gelatin completed to 100% with water. This is added to a supporting surface and allowed to set.
# Both part of the artificial skin model needs to be hydrated before being assembled. Hydrogel membranes and the Vitro-Corneum substrate (2×2 cm) are placed into an hydration chamber containing the glycerol/water wetting solution. Hydrogel membranes are hydrated and Vitro-Corneum substrates are hydrated. When the hydration is complete, the Vitro-Corneum substrate is deposited on the hydrogel. The final skin model is now ready for experiments.
# The TEWL (Trans-Epidermal Water Loss) measurements were performed with a Vapometer and Moisturemeter, product of Delfin Technologies (Finland).
# Hydrated artificial skin membrane is placed on the top of a Franz Cell, 50 μL of the product to be tested is applied on the membrane and spread manually with a finger protected by a glove. The Vapometer measures the water evaporation rate thanks to sensitive humidity sensors mounted in a cylindrical measurement chamber at the core of the device. During the measurement, the chamber is closed by the support and unaffected by ambient airflows. The water evaporation rate (g/m^2 h) is calculated from the increase of relative humidity in function of time. Ambient temperature and humidity are recorded using an external room sensor.
# For our TEWL measurement method, each experiment lasts one hour, and several measurements were taken at different time points during this period.
# All the experiments were compared to a reference system: hydrated artificial skin model, pre-treatment, without raw material application. […] For each experiment, the evaporation rate was measured before the ingredient application and the TEWL results were normalized by its value. With the normalization, the reference corresponds to 100% of water evaporation.
Compound,moisturizing (reduction of water evaporation rate / TEWL after deposit of the sample),other results
CC1/C=C/CCCCCCCCCCC(=O)C1 (racemic) [(+−)-(4e)-3-methyl-4-cyclopentadecen-1-one],suitable moisturizing potential,–
CCCCC[C@@H]1C(=O)CCCC[C@H]1CC(=O)OC [(+)-methyl (1s)-trans-3-oxo-2-pentyl-1-cycloheptaneacetate],suitable moisturizing potential,"moisturizing (reduction of water evaporation rate / TEWL after deposit of the sample) (listed as Cycloheptaneacetic acid, 3-oxo-2-pentyl-): have moisturizing effects"
"CCC(=O)OCC(=O)O[C@@H](C)[C@@H]1CCCC(C)(C)C1 [2-{(1S)-1-[(1R)-3,3-dimethylcyclohexyl]ethoxy}-2-oxoethyl propionate]",have moisturizing effects,–
CO[C@@]1(C)CC[C@@]23C[C@@H]1C(C)(C)[C@@H]2CC[C@H]3C (racemic) [(+−)-8-methoxycedrane],have moisturizing effects; also recorded: suitable moisturizing potential,–
C=C(C)C1CC=C(C)CC1 (stereo not shown) [1-methyl-4-(1-methylethenyl)-cyclohexene],have moisturizing effects; also recorded: suitable moisturizing potential,–
"CC1(C)CCC[C@]2(C)[C@H]3CCO[C@]3(C)CC[C@@H]12 [(3ar,5as,9as,9br)-3a,6,6,9a-tetramethyldodecahydronaphtho[2,1-b]furan]",suitable moisturizing potential,–
"C=CCCC(=O)C1=CCCC(C)(C)C1 [1-(5,5-dimethyl-1-cyclohexen-1-yl)-4-penten-1-one]",suitable moisturizing potential,–
"(3RS,3aRS,6SR,7aSR)-3,6-dimethylhexahydro-1-benzofuran-2(3H)-one (A)+(3RS,3aSR,6RS,7aRS)-3,6-dimethylhexahydro-1-benzofuran-2(3H)-one (B)",have moisturizing effects; also recorded: suitable moisturizing potential,–
"CCC(=O)OCC(C)(C)O[C@@H](C)[C@@H]1CCCC(C)(C)C1 [(+)-2-{(1S)-1-[(1R)-3,3-dimethylcyclohexyl]ethoxy}-2-methylpropyl propionate]",suitable moisturizing potential,–
1-oxa-12-cyclohexadecen-2-one (a)+1-oxa-13-cyclohexadecen-2-one,suitable moisturizing potential,–
CC(=O)OCc1ccccc1 [benzyl acetate],suitable moisturizing potential,moisturizing (reduction of water evaporation rate / TEWL after deposit of the sample) (listed as Benzyl acetate): have moisturizing effects
O=C1CCCCCCCCCCCCCCO1 [oxacyclohexadecan-2-one],suitable moisturizing potential,moisturizing (reduction of water evaporation rate / TEWL after deposit of the sample) (listed as Oxacyclohexadecan-2-one): have moisturizing effects
"CC(=O)[C@]1(C)CC2=C(CCCC2(C)C)C[C@H]1C (racemic) [1-((2rs,3rs)-2,3,8,8-tetramethyl-1,2,3,4,5,6,7,8-octahydronaphthalen-2-yl)ethenone]",suitable moisturizing potential,–
